Converted amounts (≈) assume the structure as drawn. Structures can show the parent of a compound that is named as a salt.
Legend:
Staphylococcus aureus = assay: test tube serial dilution test (minimal inhibitory concentration), S. aureus (Gram positive); format: cell-based; conditions: broth serial dilution; for MIC: Staphylococcus aureus, read-out: Minimum Inhibitory Concentration, S. aureus
Source text: (§1) It has been observed that the compounds generally described by the foregoing formula are particularly effective against gram positive organisms such as Staphylococcus aureus, Streptococcus sanguis and Streptococcus mutans; gram negative organisms such as Pseudomonas aeruginosa and Escherichia coli; and against fungi, such as Candida alibicans (yeast) and Trichophyton mentogrophytes and Aspergillus niger (mold). Compounds wherein A or B is a carboxyl radical in lieu of instant alkyl ester radical are substantially devoid of antibacterial activity.
(§2) The anti-microbial nature of the instant novel nontoxic compounds was shown by a standard test tube serial dilution test in which an appropriate number of test tubes of broth containing decreasing concentrations of the test agent was innoculated with the test organism (0.1% in ethyl alcohol). After a suitable period of incubation, the tubes were examined for the presence or absence of growth. The activity of the test agent was the lowest concentration which inhibited the growth of the organism and is expressed as the minimal inhibitory concentration in μ gm/ml. As shown in the following table of antimicrobial data, the dibiguanides of this invention are active against a variety of micro-organisms with maximum activity with a butyl and pentyl ester substituent on the phenyl radical.

Streptococcus sanguis = assay: test tube serial dilution test (minimal inhibitory concentration), Strep. sanguis (Gram positive); format: cell-based; conditions: broth serial dilution; for MIC: Streptococcus, read-out: Minimum Inhibitory Concentration, Strep. sanguis
Source text: as §1, §2

Escherichia coli = assay: test tube serial dilution test (minimal inhibitory concentration), E. coli (Gram negative); format: cell-based; conditions: broth serial dilution; for MIC: Escherichia coli, read-out: Minimum Inhibitory Concentration, E. coli
Source text: as §1, §2

[1] = system: Trichophyton mentogrophytes; assay: test tube serial dilution test (minimal inhibitory concentration), T. ment (mold); format: cell-based; conditions: broth serial dilution; for MIC: Trichophyton, read-out: Minimum Inhibitory Concentration, T. ment
Source text: as §1, §2

Streptococcus mutans = assay: test tube serial dilution test (minimal inhibitory concentration), Strep. mutans (Gram positive); format: cell-based; conditions: broth serial dilution; for MIC: Streptococcus mutans, read-out: Minimum Inhibitory Concentration, Strep. mutans
Source text: as §1, §2

Aspergillus niger = assay: test tube serial dilution test (minimal inhibitory concentration), A. niger (mold); format: cell-based; conditions: broth serial dilution; for MIC: Aspergillus niger, read-out: Minimum Inhibitory Concentration, A. niger
Source text: as §1, §2

Pseudomonas aeruginosa = assay: test tube serial dilution test (minimal inhibitory concentration), Ps. aeruginosa (Gram negative); format: cell-based; conditions: broth serial dilution; for MIC: Pseudomonas aeruginosa, read-out: Minimum Inhibitory Concentration, Ps. aeruginosa
Source text: as §1, §2

C. albicans = assay: test tube serial dilution test (minimal inhibitory concentration), C. albicans (yeast); format: cell-based; conditions: broth serial dilution; for MIC: Candida albicans, read-out: Minimum Inhibitory Concentration, C. albicans
Source text: as §1, §2

dental plaque = conditions: background statement; cited from earlier work
[2] = literature; cited from earlier work
[3] = on standing; cited from earlier work

| MIC (Staphylococcus aureus) | MIC (Streptococcus sanguis) | MIC (Escherichia coli) | MIC [1] | MIC (Streptococcus mutans) | MIC (Aspergillus niger) | MIC (Pseudomonas aeruginosa) | MIC (C. albicans) | Structure (SMILES) | Minimum Inhibitory Concentration, S. aureus (Staphylococcus aureus) | Minimum Inhibitory Concentration, Strep. sanguis (Streptococcus sanguis) | Minimum Inhibitory Concentration, E. coli (Escherichia coli) | Minimum Inhibitory Concentration, T. ment [1] | Minimum Inhibitory Concentration, Strep. mutans (Streptococcus mutans) | Minimum Inhibitory Concentration, A. niger (Aspergillus niger) | Minimum Inhibitory Concentration, Ps. aeruginosa (Pseudomonas aeruginosa) | Minimum Inhibitory Concentration, C. albicans (C. albicans) | antibacterial effect against dental plaque (dental plaque) | bacteriostatic activity in words [2] | hydrolysis of solutions to p-chloroaniline [3] |
| --- | --- | --- | --- | --- | --- | --- | --- | --- | --- | --- | --- | --- | --- | --- | --- | --- | --- | --- | --- |
| 0.19 µg/mL (≈ 0.312 µM) | 6.25 µg/mL (≈ 10.3 µM) | 1.56 µg/mL (≈ 2.56 µM) | 6.25 µg/mL (≈ 10.3 µM) | 0.1 µg/mL (≈ 0.164 µM) | 50 µg/mL (≈ 82.1 µM) | 25 µg/mL (≈ 41.1 µM) | 1.56 µg/mL (≈ 2.56 µM) | CC(C)OC(=O)c1ccc(NC(=N)NC(=N)NCCCCCCNC(=N)NC(=N)Nc2ccc(C(=O)OC(C)C)cc2)cc1 [A = (CH3)2 CHOCO, B = H] | – | – | – | – | – | – | – | – | – | – | – |
| 0.78 µg/mL | 25 µg/mL | 1.56 µg/mL | 12.5 µg/mL | 0.39 µg/mL | 100 µg/mL | 25 µg/mL | 12.5 µg/mL | CCOC(=O)c1ccc(NC(=N)NC(=N)NCCCCCCNC(=N)NC(=N)Nc2ccc(C(=O)OCC)cc2)cc1 [A = C2 H5 OCO, B = H, N,N"-bis(4-ethoxycarbonylphenyl)-3,12-diimino-2,4,11,13-tetraazatetradecanediimidamide dihydrochloride] | – | – | – | – | – | – | – | – | – | – | – |
| 0.19 µg/mL (≈ 0.312 µM) | 3.12 µg/mL (≈ 5.13 µM) | 1.56 µg/mL (≈ 2.56 µM) | 3.12 µg/mL (≈ 5.13 µM) | < 0.05 µg/mL | 100 µg/mL (≈ 164 µM) | 25 µg/mL (≈ 41.1 µM) | 3.12 µg/mL (≈ 5.13 µM) | CCCOC(=O)c1ccc(NC(=N)NC(=N)NCCCCCCNC(=N)NC(=N)Nc2ccc(C(=O)OCCC)cc2)cc1 [A = C3 H7 OCO, B = H] | – | – | – | – | – | – | – | – | – | – | – |
| – | – | – | – | – | – | – | – | CCCCOC(=O)c1ccc(NC(=N)NC(=N)NCCCCCCNC(=N)NC(=N)Nc2ccc(C(=O)OCCCC)cc2)cc1 [A = C4 H9 OCO, B = H] | 0.1 μgm/ml | .78 μgm/ml | 1.56 μgm/ml | 12.5 μgm/ml | < .05 μgm/ml | 50 μgm/ml | 12.5 μgm/ml | 0.78 μgm/ml | – | – | – |
| 0.39 µg/mL (≈ 0.587 µM) | 0.19 µg/mL (≈ 0.286 µM) | 25 µg/mL (≈ 37.6 µM) | 25 µg/mL (≈ 37.6 µM) | < 0.05 µg/mL | 50 µg/mL (≈ 75.2 µM) | 50 µg/mL (≈ 75.2 µM) | 0.39 µg/mL (≈ 0.587 µM) | CCCCCOC(=O)c1ccc(NC(=N)NC(=N)NCCCCCCNC(=N)NC(=N)Nc2ccc(C(=O)OCCCCC)cc2)cc1 [A = C5 H11 OCO, B = H] | – | – | – | – | – | – | – | – | – | – | – |
| 0.39 µg/mL (≈ 0.563 µM) | 0.39 µg/mL (≈ 0.563 µM) | 6.25 µg/mL (≈ 9.02 µM) | 12.5 µg/mL (≈ 18 µM) | 0.39 µg/mL (≈ 0.563 µM) | 100 µg/mL (≈ 144 µM) | 50 µg/mL (≈ 72.2 µM) | 0.39 µg/mL (≈ 0.563 µM) | CCCCCCOC(=O)c1ccc(NC(=N)NC(=N)NCCCCCCNC(=N)NC(=N)Nc2ccc(C(=O)OCCCCCC)cc2)cc1 [A = C6 H13 OCO, B = H] | – | – | – | – | – | – | – | – | – | – | – |
| 1.56 µg/mL | 25 µg/mL | 12.5 µg/mL | 25 µg/mL | 1.56 µg/mL | 100 µg/mL | 50 µg/mL | 12.5 µg/mL | CCCCCCCCOC(=O)c1ccc(NC(=N)NC(=N)NCCCCCCNC(=N)NC(=N)Nc2ccc(C(=O)OCCCCCCCC)cc2)cc1 [A = C8 H17 OCO, B = H, N,N"-bis(4-Octyloxycarbonylphenyl)-3,12-diimino-2,4,11,13-tetraazatetradecanediimidamide dihydrochloride] | – | – | – | – | – | – | – | – | – | – | – |
| – | – | – | – | – | – | – | – | COC(=O)c1ccc(NC(=N)NC(=N)NCCCCCCNC(=N)NC(=N)Nc2ccc(C(=O)OC)cc2)cc1 [A = CH3 OCO, B = H] | 6.25 μgm/ml | 50 μgm/ml | 25 μgm/ml | 12.5 μgm/ml | 1.56 μgm/ml | 100 μgm/ml | 50 μgm/ml | 25 μgm/ml | – | – | – |
| 10 µg/mL (≈ 19.1 µM) | 100 µg/mL (≈ 191 µM) | 100 µg/mL (≈ 191 µM) | 100 µg/mL (≈ 191 µM) | 25 µg/mL (≈ 47.7 µM) | 100 µg/mL (≈ 191 µM) | 50 µg/mL (≈ 95.3 µM) | 100 µg/mL (≈ 191 µM) | N=C(NCCCCCCNC(=N)NC(=N)Nc1ccc(C(=O)O)cc1)NC(=N)Nc1ccc(C(=O)O)cc1 [A = COOH, B = H, reference compound] | – | – | – | – | – | – | – | – | – | – | – |
| 0.19 µg/mL | 12.5 µg/mL | 3.12 µg/mL | 12.5 µg/mL | 0.1 µg/mL | 50 µg/mL | 50 µg/mL | 3.12 µg/mL | CC(C)OC(=O)c1cccc(NC(=N)NC(=N)NCCCCCCNC(=N)NC(=N)Nc2cccc(C(=O)OC(C)C)c2)c1 [A = H, B = (CH3)2 CHOCO, dihydrochloride] | – | – | – | – | – | – | – | – | – | – | – |
| < 0.05 µg/mL | 1.56 µg/mL (≈ 2.45 µM) | 0.78 µg/mL (≈ 1.22 µM) | 6.25 µg/mL (≈ 9.81 µM) | < 0.05 µg/mL | 50 µg/mL (≈ 78.5 µM) | 12.5 µg/mL (≈ 19.6 µM) | 0.39 µg/mL (≈ 0.612 µM) | CCCCOC(=O)c1cccc(NC(=N)NC(=N)NCCCCCCNC(=N)NC(=N)Nc2cccc(C(=O)OCCCC)c2)c1 [A = H, B = C4 H9 OCO] | – | – | – | – | – | – | – | – | – | – | – |
| 3.12 µg/mL (≈ 5.65 µM) | 100 µg/mL (≈ 181 µM) | 12.5 µg/mL (≈ 22.6 µM) | 12.5 µg/mL (≈ 22.6 µM) | 1.56 µg/mL (≈ 2.82 µM) | 100 µg/mL (≈ 181 µM) | 50 µg/mL (≈ 90.5 µM) | 25 µg/mL (≈ 45.2 µM) | COC(=O)c1cccc(NC(=N)NC(=N)NCCCCCCNC(=N)NC(=N)Nc2cccc(C(=O)OC)c2)c1 [A = H, B = CH3 OCO] | – | – | – | – | – | – | – | – | – | – | – |
| – | – | – | – | – | – | – | – | N=C(NCCCCCCNC(=N)NC(=N)Nc1ccc(Cl)cc1)NC(=N)Nc1ccc(Cl)cc1 [Chlorhexidine hydrochloride, reference compound] | .19 μgm/ml | 6.25 μgm/ml | .78 μgm/ml | 1.56 μgm/ml | < .05 μgm/ml | 25 μgm/ml | 12.5 μgm/ml | 3.12 μgm/ml | – | – | – |
| 0.05 µg/mL (≈ 0.0785 µM) | 0.78 µg/mL (≈ 1.22 µM) | 3.12 µg/mL (≈ 4.9 µM) | – | < 0.05 µg/mL | 100 µg/mL (≈ 157 µM) | 25 µg/mL (≈ 39.3 µM) | 0.78 µg/mL (≈ 1.22 µM) | CCCCOC(=O)c1ccc(NC(=N)NC(=N)NCCCCCCNC(=N)NC(=N)Nc2ccc(C(=O)OCCCC)cc2)cc1 [drawing 6: A = C4 H9 OCO, B = H] | – | – | – | 0.19 μgm/ml | – | – | – | – | – | – | – |
| – | 50 µg/mL (≈ 90.5 µM) | 50 µg/mL (≈ 90.5 µM) | 25 µg/mL (≈ 45.2 µM) | – | 100 µg/mL (≈ 181 µM) | 25 µg/mL (≈ 45.2 µM) | 25 µg/mL (≈ 45.2 µM) | COC(=O)c1ccc(NC(=N)NC(=N)NCCCCCCNC(=N)NC(=N)Nc2ccc(C(=O)OC)cc2)cc1 [drawing 6: A = CH3 OCO, B = H] | 3.12 μgm/ml | – | – | – | 25 μgm/ml | – | – | – | – | – | – |

| Structure (SMILES) | MIC (Staphylococcus aureus) | MIC (Streptococcus sanguis) | MIC (Escherichia coli) | MIC [1] | MIC (Streptococcus mutans) | MIC (Aspergillus niger) | MIC (Pseudomonas aeruginosa) | MIC (C. albicans) | Minimum Inhibitory Concentration, S. aureus (Staphylococcus aureus) | Minimum Inhibitory Concentration, Strep. sanguis (Streptococcus sanguis) | Minimum Inhibitory Concentration, E. coli (Escherichia coli) | Minimum Inhibitory Concentration, T. ment [1] | Minimum Inhibitory Concentration, Strep. mutans (Streptococcus mutans) | Minimum Inhibitory Concentration, A. niger (Aspergillus niger) | Minimum Inhibitory Concentration, Ps. aeruginosa (Pseudomonas aeruginosa) | Minimum Inhibitory Concentration, C. albicans (C. albicans) | antibacterial effect against dental plaque (dental plaque) | bacteriostatic activity in words [2] | hydrolysis of solutions to p-chloroaniline [3] |
| --- | --- | --- | --- | --- | --- | --- | --- | --- | --- | --- | --- | --- | --- | --- | --- | --- | --- | --- | --- |
| N=C(NCCCCCCNC(=N)NC(=N)Nc1ccc(Cl)cc1)NC(=N)Nc1ccc(Cl)cc1 [Chlorhexidine, reference compound] | 0.19 µg/mL (≈ 0.376 µM) | – | – | – | < 0.05 µg/mL | 25 µg/mL (≈ 49.5 µM) | – | 1.56 µg/mL (≈ 3.09 µM) | – | 3.12 μgm/ml | 0.19 μgm/ml | – | – | – | – | – | effective antibacterial agent against dental plaque | selected as the best | hydrolyze on standing to form additional amounts of p-chloroaniline |
